Reference: patent EP0863148A1, “Compounds derived from adenosine, use of such compound as a medicament, method for synthesizing such a compound and intermediates thereof” (K.U. LEUVEN RESEARCH & DEVELOPMENT, priority 1997, dated 1998)

What was measured:
A1 receptor = target: T1, A1 receptor (Homo sapiens, UniProt P30542); details: cited from earlier work
T1 sequence (P30542 1-326): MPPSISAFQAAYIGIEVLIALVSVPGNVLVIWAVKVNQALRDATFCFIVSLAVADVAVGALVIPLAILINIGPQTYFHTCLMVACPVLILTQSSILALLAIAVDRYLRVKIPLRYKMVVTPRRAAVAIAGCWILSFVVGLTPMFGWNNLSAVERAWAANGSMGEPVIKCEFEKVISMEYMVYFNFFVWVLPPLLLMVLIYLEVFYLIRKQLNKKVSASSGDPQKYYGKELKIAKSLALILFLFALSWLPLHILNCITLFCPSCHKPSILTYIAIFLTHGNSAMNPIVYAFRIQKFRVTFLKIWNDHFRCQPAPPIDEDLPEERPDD

adenosine A1 receptor = target: T2, adenosine A1 receptor (Rattus norvegicus, UniProt P25099); test: Radioligand binding assay, displacement of [3H]DPCPX, in the absence and presence of 1 mM GTP; details: for Ki: rat brain cortex, [3H]DPCPX; for GTP shift: ratio of the apparent Ki values in the presence and absence of 1 mM GTP
T2 construct: adenosine A1 receptor in rat brain cortex; from tissue; host or cells: rat brain cortex
T2 sequence (P25099 1-326): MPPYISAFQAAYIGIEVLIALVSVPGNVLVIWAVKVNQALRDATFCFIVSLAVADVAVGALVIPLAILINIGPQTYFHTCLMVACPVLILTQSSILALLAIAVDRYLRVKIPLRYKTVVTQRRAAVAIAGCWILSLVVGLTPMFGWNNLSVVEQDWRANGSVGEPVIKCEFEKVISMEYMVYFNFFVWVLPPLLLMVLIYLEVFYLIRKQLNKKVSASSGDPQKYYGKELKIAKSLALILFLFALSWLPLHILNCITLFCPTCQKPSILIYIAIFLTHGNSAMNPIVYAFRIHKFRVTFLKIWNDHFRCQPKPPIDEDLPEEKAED
Description: The compounds were assayed for A1 affinity (Ki values expressed in µM) using the tritiated antagonist [^3H]-1,3-dipropyl-8-cyclopentylxanthine (DPCPX). Displacement experiments were performed in the absence and presence of 1 mM GTP, allowing the determination of the GTP shift (i.e., the ratio of the apparant Ki values in the presence and absence of GTP, respectively). This shift is an in vitro parameter often indicative for intrinsic activity.

A2a receptors = test: Selectivity for A1 vs A2a receptors (method not described); type: binding
Chain of A2a receptors (P29274 whole entry): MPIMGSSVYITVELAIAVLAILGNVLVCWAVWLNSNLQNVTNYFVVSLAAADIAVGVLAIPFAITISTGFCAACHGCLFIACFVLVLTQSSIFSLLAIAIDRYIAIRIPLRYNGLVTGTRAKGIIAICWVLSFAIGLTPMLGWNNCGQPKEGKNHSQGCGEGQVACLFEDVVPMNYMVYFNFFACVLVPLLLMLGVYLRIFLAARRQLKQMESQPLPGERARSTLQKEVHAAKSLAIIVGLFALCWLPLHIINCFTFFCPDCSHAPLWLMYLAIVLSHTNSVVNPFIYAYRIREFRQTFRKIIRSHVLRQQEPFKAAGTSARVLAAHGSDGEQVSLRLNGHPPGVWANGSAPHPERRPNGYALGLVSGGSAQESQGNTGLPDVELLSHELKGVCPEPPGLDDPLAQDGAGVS

Compound	Ki (adenosine A1 receptor; absence of GTP) [nM]	Ki (adenosine A1 receptor; presence of 1 mM GTP) [nM]	GTP shift (adenosine A1 receptor)	selectivity for A1 vs A2a receptors (A2a receptors) [times]	affinity for A1 receptors (adenosine A1 receptor; stated in words)	affinity for the A1 receptor (A1 receptor; stated in words, background)	drop in affinity (A1 receptor; A1 receptor affinity, removal of the 3'-hydroxyl group of R-PIA) [fold]
OCC1CC(O)C(n2cnc3c(NC4CCCC4)ncnc32)O1 (stereo not shown) [3'-deoxy-CPA, reference compound]	110 ± 30	470 ± 40	4.3±1.2	–	–	submicromolar affinity	–
C[C@H](Cc1ccccc1)Nc1ncnc2c1ncn2[C@@H]1O[C@H](CO)C[C@H]1O [3'-deoxy-R-PIA]	–	–	–	–	–	–	30
Nc1ncnc2c1ncn2[C@@H]1O[C@H](CO)C[C@H]1O [3'-deoxyadenosine, reference compound]	7120 ± 3620	15200 ± 2000	2.1±1.4	–	–	–	–
O=C(N[C@@H]1[C@@H](O)[C@H](n2cnc3c(NC4CCCC4)ncnc32)O[C@@H]1CO)c1ccccc1 [a, 9-(3-Benzamido-3-deoxy-β-D-xylofuranosyl)-N^6-cyclopentyladenine]	400 ± 130	310 ± 50	0.80±0.13	–	–	–	–
Cc1ccc(C(=O)N[C@@H]2[C@@H](O)[C@H](n3cnc4c(NC5CCCC5)ncnc43)O[C@@H]2CO)cc1 [b, 9-[3-Deoxy-3-(4-methylbenzamido)-β-D-xylofuranosyl]-N^6-cyclopentyladenine]	83 ± 15	68 ± 10	0.84±0.19	–	–	–	–

Continued, in another order:

Ki (adenosine A1 receptor; absence of GTP) [nM]	Ki (adenosine A1 receptor; presence of 1 mM GTP) [nM]	GTP shift (adenosine A1 receptor)	selectivity for A1 vs A2a receptors (A2a receptors) [times]	affinity for A1 receptors (adenosine A1 receptor; stated in words)	Compound	affinity for the A1 receptor (A1 receptor; stated in words, background)	drop in affinity (A1 receptor; A1 receptor affinity, removal of the 3'-hydroxyl group of R-PIA) [fold]
23.6 ± 2.5	17.4 ± 4.2	0.73±0.11	160	–	Cc1ccc(C(=O)N[C@@H]2[C@@H](O)[C@H](n3cnc4c(NC5CCCC5)ncnc43)O[C@@H]2CO)cc1C [c, 9-[3-Deoxy-3-(3,4-dimethylbenzamido)-β-D-xylofuranosyl]-N^6-cyclopentyladenine]	–	–
–	–	–	–	relatively poor affinity	[N-]=[N+]=NC1C(CO)OC(n2cnc3c(NC4CCCC4)ncnc32)C1O (stereo not shown) [compound 3]	–	–
32.5 ± 0.31	23.7 ± 1.4	0.73±0.09	–	–	O=C(N[C@@H]1[C@@H](O)[C@H](n2cnc3c(NC4CCCC4)ncnc32)O[C@@H]1CO)c1ccc(Cl)c(Cl)c1 [d, 9-[3-Deoxy-3-(3,4-dichlorobenzamido)-β-D-xylofuranosyl]-N^6-cyclopentyladenine]	–	–
